Where two headings read alike, the source gives them in different places.
Assays:
ratTRPV1 (rTRPV1) = target: T1, ratTRPV1 (rTRPV1) (Rattus norvegicus, UniProt O35433); assay: TRPV1 calcium imaging in CHO cells (acid / 2APB activation); type: cell-based; conditions: 50 μM
T1 construct: expressed in transfected cells
Method: Testing for receptors ratTRPA1 (rTRPA1) and ratTRPV1 (rTRPV1), stably expressed in CHO cells, was carried out using the calcium imaging method as described in [123, 124]. Fluorescence was performed using NOVOstar (BMG LABTECH, Ortenberg, Germany). The tested substances in 26% DMSO solution or 26% DMSO solution alone (negative control) (5 μL) were added to the cells loaded with the cytoplasmic calcium indicator Fluo-4AM using Fluo-4 Direct™ Calcium Assay Kit (Thermo Fisher Scientific Inc., Waltham, MA, USA) (60 μL) and incubated 5–10 min. Final DMSO concentration was 2%. Changes in cell fluorescence (λex = 485 nm, λem = 520 nm) were monitored at 25 °C before and after the addition of relevant agonist. The AITC final concentration 160 μM was used for rTRPA1 activation. For rTRPV1 activation we used (1) acid-salt buffer pH4.01 (diluted 2 times Buffer solution pH 4.01 (Mettler Toledo, Greifensee, Switzerland) containing 150 mM NaCl), (2) 2APB in 10 mM HEPES/HBSS, pH 7.4—final concentration 160 μM, or (3) 2APB in acid-salt buffer pH 4.01—final concentration 80 μM. Nonspecificity was tested on wild type CHO.
To achieve the required level of acidification, the cell medium with fluorescent dye (pH 7.4) was pre-titrated to determine the required volume of acid-salt buffer until pH 6.2 was reached. The pH level was also monitored after the test as an average of 10–12 wells. […]

Sprague-Dawley rats = assay: Carrageenan-induced paw edema model (anti-inflammatory activity); type: in vivo; conditions: ip, dose 10 mg/kg, four independent experiments
Method: Anti-inflammatory activity was studied in Sprague-Dawley rats (3 male and 3 female animals per group) by using the common carrageenan-induced paw edema model. The investigated compounds in 1% starch mucilage were intraperitoneally administered at the corresponding dose to a treated group of rodents 30 min before the injection of 0.1 mL of freshly prepared 1% carrageenan (λ-carrageenan, type IV; Sigma Aldrich, an affiliate of Merck KGaA, Darmstadt, Germany) solution in the right hind paw plantar surface. The negative control group was treated with 1% starch mucilage solution only. Diclofenac sodium (10 mg/kg in 1% starch mucilage solution) was used as a reference drug. Paw volumes were measured oncometrically with water plethysmometer (TSE Volume Meter, Bad Homburg, Germany) before carrageenan administration (“zero time”) and at 1st, 3rd, 5th and 24th h after its injection. An anti-inflammatory activity of the sample at a certain time point was calculated in two steps. First, the percentage of an edema increment (i.e., relative volume change for the inflamed paw vs. “zero time” value) both in the negative control group (Pc) and in the treated group (Ptr) were calculated for this time point for each animal. The difference between treated and control group was considered significant at p < 0.05. Then, for such cases, swelling inhibition was calculated according to the formula: 100% (Pc − Ptr)/Pc and considered as a measure of anti-inflammatory activity of the sample.

Sprague-Dawley (SD) rats = assay: Hot plate test (analgesic activity); type: in vivo; conditions: Rattus norvegicus, hot plate test, rats, ip, dose 10 mg/kg, eight independent experiments
In short: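 Test compounds were given i.p. as suspensions in 1% starch mucilage to SD rats (3 male, 3 female per group), vehicle as negative control. At 1 and 2 h post-dose, latency to nociceptive response (jumping, hind paw licking/shaking) on a 50 °C plate was recorded, 30 s cutoff.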

T1 sequence (O35433 whole entry): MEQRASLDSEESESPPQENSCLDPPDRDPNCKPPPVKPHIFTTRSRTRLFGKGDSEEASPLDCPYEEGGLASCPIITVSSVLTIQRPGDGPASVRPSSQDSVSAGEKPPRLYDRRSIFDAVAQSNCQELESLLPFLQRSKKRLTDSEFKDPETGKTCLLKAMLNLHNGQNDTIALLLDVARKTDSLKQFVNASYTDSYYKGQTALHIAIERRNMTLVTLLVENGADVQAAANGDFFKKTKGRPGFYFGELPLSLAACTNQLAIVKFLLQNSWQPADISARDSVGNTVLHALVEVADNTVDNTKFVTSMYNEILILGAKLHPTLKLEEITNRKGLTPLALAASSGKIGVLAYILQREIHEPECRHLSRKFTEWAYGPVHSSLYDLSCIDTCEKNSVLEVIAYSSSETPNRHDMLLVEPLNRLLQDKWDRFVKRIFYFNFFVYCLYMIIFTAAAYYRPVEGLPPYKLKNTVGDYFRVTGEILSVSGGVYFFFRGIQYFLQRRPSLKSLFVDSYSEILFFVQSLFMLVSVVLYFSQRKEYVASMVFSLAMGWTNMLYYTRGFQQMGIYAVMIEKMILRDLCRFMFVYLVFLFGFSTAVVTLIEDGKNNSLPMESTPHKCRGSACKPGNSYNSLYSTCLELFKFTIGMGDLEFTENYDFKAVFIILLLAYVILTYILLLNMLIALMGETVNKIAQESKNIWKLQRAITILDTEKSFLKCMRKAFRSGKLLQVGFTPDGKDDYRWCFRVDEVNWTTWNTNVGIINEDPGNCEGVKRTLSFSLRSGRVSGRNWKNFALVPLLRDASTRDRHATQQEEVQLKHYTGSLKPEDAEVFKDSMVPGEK

Question: With `Cc1ccc(N/N=C2\C(=O)N(c3ccc(C)cc3)N=C2C(F)(F)C(F)(F)F)cc1` as the molecule, how does the melting point read?
Answer: 165 to 166 °C

Question: For `Oc1cc2c(cc1O)CN(C(=S)NCCc1ccc(Cl)cc1)CCC2` [capsazepine], which “inhibition of the increase in intracellular Ca2+ (TRPV1 activation by acidic solution or 160 μM 2APB)” value (ratTRPV1 (rTRPV1)) is on record?
Answer: effectively inhibited

Question: What does the source list for `O=C(O)Cc1ccccc1Nc1c(Cl)cccc1Cl` [Diclofenac, reference compound]?
Answer: Inhibition of Paw Edema Development Comparing to Control, after 1 h (Sprague-Dawley rats): 35.6 ± 5.8 ^1%; Inhibition of Paw Edema Development Comparing to Control, after 3 h (Sprague-Dawley rats): 54.3 ± 12.1 ^1%; Inhibition of Paw Edema Development Comparing to Control, after 5 h (Sprague-Dawley rats): 46.2 ± 13.2 ^1%; change in vivo at 10 mg/kg (Sprague-Dawley (SD) rats; 1 h, read-out: Latent Period Prolongation, % 1 h): 63.5 ± 18.2%; change in vivo at 10 mg/kg (Sprague-Dawley (SD) rats; 2 h, read-out: Latent Period Prolongation, % 2 h): 70 ± 20.8%

From paper PMC9821843, “Powerful Potential of Polyfluoroalkyl-Containing 4-Arylhydrazinylidenepyrazol-3-ones for Pharmaceuticals” (Molecules, 2022)
